# According to patent US6362226B1, “Modulation of in vivo glutamine and glycine levels in the treatment of autism” (Vanderbilt University, priority 1999, dated 2002):
# System: autistic patients
# Experiment: Open-label dextromethorphan treatment of autistic patients B and F with elevated plasma glutamine and/or glycine, rated by treatment-blinded observers
# Assay type: in vivo, human
# Source text: Autistic patients were screened for elevated plasma levels of glutamine or glycine, or both. Five of 36 patients had elevated levels of either or both amino acids. One patient, “B”, had been diagnosed as having autism […] and 10 months. […] Further, B had elevated levels of glutamine in their cerebrospinal fluid, although their glycine levels were within the normal range. Their routine chemistry lab tests, including their urine organic acid profile, were normal. Patient “F” had persistent elevated glycine levels on multiple amino acid profiles which ranged from 324 to 439 μmol/L, where normal levels are from 120 to 315 μmol/L.
# Both patients B and F were treated with dextromethorphan at 5 mg/kg body weight/day in the form of a cough and cold preparation sold under the registered trademark DELSYM® by McNeilLab, Inc. of Spring House, Pa., divided BID.
# Example 1 discloses that 5/36 (14%) of children with autism have increased plasma levels of glutamine, glycine or both glutamine and glycine. In Example 1, an autistic patient with elevated glutamine and glycine and an autistic patient with glycine were treated with DM at 5 mg/kg body weight/day. […] The procedures of Example 1, however, were uncontrolled and open-label. In Example 2, treatment of children with autism with PB, SB or combinations of PB, SB and DM is systematically evaluated.
smiles,measurement,setting,value
COc1ccc2c(c1)[C@]13CCCC[C@@H]1[C@H](C2)N(C)CC3 [dextromethorphan],response upon resumption of long-term dextromethorphan treatment,patients B and F,responded as before and have continued to respond
same,"expressive and receptive language skills, attention span and focus, motor planning and socialization with peers","patients B and F, 5 mg/kg body weight/day divided BID as DELSYM, teachers and therapists blinded to treatment",significant improvement
same,behavior after withdrawal of dextromethorphan treatment,"patients B and F, treatment-blinded observers, all areas previously improved",regression in all of these areas of behavior measurement
same,autistic behavior,"two autistic patients, DM 5 mg/kg body weight/day, uncontrolled, open-label",clinical improvement
